Experimental data taken from PubChem BioAssay (NCI).
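Method: 48-hour compound exposure of cells in 96-well plates, five concentrations, linear interpolation of endpoints. Definition used: TGI = concentration required for complete inhibition of growth.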

What was measured:
Assay in all cases: NCI-60 cell line screen, 48 h
786-0 renal = tested on: 786-0 renal
A549 NSCLC = tested on: A549 NSCLC
ACHN renal = tested on: ACHN renal
BT-549 breast = tested on: BT-549 breast
CAKI-1 renal = tested on: CAKI-1 renal
CCRF-CEM leukemia = tested on: CCRF-CEM leukemia
COLO 205 colon = tested on: COLO 205 colon
DU-145 prostate = tested on: DU-145 prostate
EKVX NSCLC = tested on: EKVX NSCLC
HCC-2998 colon = tested on: HCC-2998 colon
HCT-116 colon = tested on: HCT-116 colon
HCT-15 colon = tested on: HCT-15 colon
HL-60(TB) leukemia = tested on: HL-60(TB) leukemia
HOP-62 NSCLC = tested on: HOP-62 NSCLC
HS 578T breast = tested on: HS 578T breast
HT29 colon = tested on: HT29 colon
IGROV1 ovarian = tested on: IGROV1 ovarian
K-562 leukemia = tested on: K-562 leukemia
KM12 colon = tested on: KM12 colon
LOX IMVI melanoma = tested on: LOX IMVI melanoma
M14 melanoma = tested on: M14 melanoma
MALME-3M melanoma = tested on: MALME-3M melanoma
MCF7 breast = tested on: MCF7 breast
MDA-MB-231 breast = tested on: MDA-MB-231 breast
MDA-MB-435 = tested on: MDA-MB-435
MDA-N = tested on: MDA-N
MOLT-4 leukemia = tested on: MOLT-4 leukemia
NCI-H226 lung = tested on: NCI-H226 lung
NCI-H23 lung = tested on: NCI-H23 lung
NCI-H460 lung = tested on: NCI-H460 lung
NCI-H522 lung = tested on: NCI-H522 lung
NCI/ADR-RES ovarian = tested on: NCI/ADR-RES ovarian
OVCAR-3 ovarian = tested on: OVCAR-3 ovarian
OVCAR-4 ovarian = tested on: OVCAR-4 ovarian
OVCAR-5 ovarian = tested on: OVCAR-5 ovarian
OVCAR-8 ovarian = tested on: OVCAR-8 ovarian
PC-3 prostate = tested on: PC-3 prostate
RPMI-8226 leukemia = tested on: RPMI-8226 leukemia
RXF 393 renal = tested on: RXF 393 renal
SF-268 CNS = tested on: SF-268 CNS
SF-295 CNS = tested on: SF-295 CNS
SF-539 CNS = tested on: SF-539 CNS
SK-MEL-2 melanoma = tested on: SK-MEL-2 melanoma
SK-MEL-28 melanoma = tested on: SK-MEL-28 melanoma
SK-MEL-5 melanoma = tested on: SK-MEL-5 melanoma
SK-OV-3 ovarian = tested on: SK-OV-3 ovarian
SN12C renal = tested on: SN12C renal
SNB-19 CNS = tested on: SNB-19 CNS
SNB-75 CNS = tested on: SNB-75 CNS
SR leukemia = tested on: SR leukemia
SW-620 colon = tested on: SW-620 colon
T-47D breast = tested on: T-47D breast
TK-10 renal = tested on: TK-10 renal
U251 CNS = tested on: U251 CNS
UACC-257 melanoma = tested on: UACC-257 melanoma
UACC-62 melanoma = tested on: UACC-62 melanoma
UO-31 renal = tested on: UO-31 renal
A498 renal = tested on: A498 renal
HOP-92 NSCLC = tested on: HOP-92 NSCLC

CC(C)CC(C(N)=O)C(=O)NC(Cc1ccccc1)NC(=O)CNC(=O)C(C)NC(=O)C(N)Cc1ccc(O)cc1 (stereo unspecified)
TGI (786-0 renal): > 100 µM | TGI (A549 NSCLC): > 100 µM | TGI (ACHN renal): > 100 µM | TGI (BT-549 breast): > 100 µM | TGI (CAKI-1 renal): > 100 µM | TGI (CCRF-CEM leukemia): > 100 µM | TGI (COLO 205 colon): > 100 µM | TGI (DU-145 prostate): > 100 µM | TGI (EKVX NSCLC): > 100 µM | TGI (HCC-2998 colon): > 100 µM | TGI (HCT-116 colon): > 100 µM | TGI (HCT-15 colon): > 100 µM | TGI (HL-60(TB) leukemia): > 100 µM | TGI (HOP-62 NSCLC): > 100 µM | TGI (HS 578T breast): > 100 µM | TGI (HT29 colon): > 100 µM | TGI (IGROV1 ovarian): > 100 µM | TGI (K-562 leukemia): > 100 µM | TGI (KM12 colon): > 100 µM | TGI (LOX IMVI melanoma): > 100 µM | TGI (M14 melanoma): > 100 µM | TGI (MALME-3M melanoma): > 100 µM | TGI (MCF7 breast): > 100 µM | TGI (MDA-MB-231 breast): > 100 µM | TGI (MDA-MB-435): > 100 µM | TGI (MDA-N): > 100 µM | TGI (MOLT-4 leukemia): > 100 µM | TGI (NCI-H226 lung): > 100 µM | TGI (NCI-H23 lung): > 100 µM | TGI (NCI-H460 lung): > 100 µM | TGI (NCI-H522 lung): > 100 µM | TGI (NCI/ADR-RES ovarian): > 100 µM | TGI (OVCAR-3 ovarian): > 100 µM | TGI (OVCAR-4 ovarian): > 100 µM | TGI (OVCAR-5 ovarian): > 100 µM | TGI (OVCAR-8 ovarian): > 100 µM | TGI (PC-3 prostate): > 100 µM | TGI (RPMI-8226 leukemia): > 100 µM | TGI (RXF 393 renal): > 100 µM | TGI (SF-268 CNS): > 100 µM | TGI (SF-295 CNS): > 100 µM | TGI (SF-539 CNS): > 100 µM | TGI (SK-MEL-2 melanoma): > 100 µM | TGI (SK-MEL-28 melanoma): > 100 µM | TGI (SK-MEL-5 melanoma): > 100 µM | TGI (SK-OV-3 ovarian): > 100 µM | TGI (SN12C renal): > 100 µM | TGI (SNB-19 CNS): > 100 µM | TGI (SNB-75 CNS): > 100 µM | TGI (SR leukemia): > 100 µM | TGI (SW-620 colon): > 100 µM | TGI (T-47D breast): > 100 µM | TGI (TK-10 renal): > 100 µM | TGI (U251 CNS): > 100 µM | TGI (UACC-257 melanoma): > 100 µM | TGI (UACC-62 melanoma): > 100 µM | TGI (UO-31 renal): > 100 µM

NC1(C(=O)O)CCCC1C(=O)O (stereo unspecified)
TGI (786-0 renal): > 100 µM | TGI (A498 renal): > 100 µM | TGI (A549 NSCLC): > 100 µM | TGI (ACHN renal): > 100 µM | TGI (BT-549 breast): > 100 µM | TGI (CAKI-1 renal): > 100 µM | TGI (CCRF-CEM leukemia): > 100 µM | TGI (COLO 205 colon): > 100 µM | TGI (DU-145 prostate): > 100 µM | TGI (EKVX NSCLC): > 100 µM | TGI (HCT-116 colon): > 100 µM | TGI (HCT-15 colon): > 100 µM | TGI (HL-60(TB) leukemia): > 100 µM | TGI (HOP-62 NSCLC): > 100 µM | TGI (HOP-92 NSCLC): > 100 µM | TGI (HS 578T breast): > 100 µM | TGI (HT29 colon): > 100 µM | TGI (IGROV1 ovarian): > 100 µM | TGI (K-562 leukemia): > 100 µM | TGI (KM12 colon): > 100 µM | TGI (LOX IMVI melanoma): > 100 µM | TGI (M14 melanoma): > 100 µM | TGI (MALME-3M melanoma): > 100 µM | TGI (MCF7 breast): > 100 µM | TGI (MDA-MB-231 breast): > 100 µM | TGI (MDA-MB-435): > 100 µM | TGI (MDA-N): > 100 µM | TGI (MOLT-4 leukemia): > 100 µM | TGI (NCI-H23 lung): > 100 µM | TGI (NCI-H460 lung): > 100 µM | TGI (NCI-H522 lung): > 100 µM | TGI (NCI/ADR-RES ovarian): > 100 µM | TGI (OVCAR-3 ovarian): > 100 µM | TGI (OVCAR-4 ovarian): > 100 µM | TGI (OVCAR-5 ovarian): > 100 µM | TGI (OVCAR-8 ovarian): > 100 µM | TGI (PC-3 prostate): > 100 µM | TGI (RPMI-8226 leukemia): > 100 µM | TGI (RXF 393 renal): > 100 µM | TGI (SF-268 CNS): > 100 µM | TGI (SF-295 CNS): > 100 µM | TGI (SF-539 CNS): > 100 µM | TGI (SK-MEL-2 melanoma): > 100 µM | TGI (SK-MEL-28 melanoma): > 100 µM | TGI (SK-MEL-5 melanoma): > 100 µM | TGI (SK-OV-3 ovarian): > 100 µM | TGI (SN12C renal): > 100 µM | TGI (SNB-19 CNS): > 100 µM | TGI (SNB-75 CNS): > 100 µM | TGI (SR leukemia): > 100 µM | TGI (SW-620 colon): > 100 µM | TGI (T-47D breast): > 100 µM | TGI (TK-10 renal): > 100 µM | TGI (U251 CNS): > 100 µM | TGI (UACC-257 melanoma): > 100 µM | TGI (UACC-62 melanoma): > 100 µM | TGI (UO-31 renal): > 100 µM

COc1cc(/C=N\O)cc(/C=N/O)c1O
TGI (A498 renal): > 100 µM | TGI (A549 NSCLC): > 100 µM | TGI (ACHN renal): 81.9 µM | TGI (BT-549 breast): > 100 µM | TGI (CAKI-1 renal): > 100 µM | TGI (CCRF-CEM leukemia): 25.1 µM | TGI (COLO 205 colon): 49.2 µM | TGI (DU-145 prostate): > 100 µM | TGI (EKVX NSCLC): > 100 µM | TGI (HCT-116 colon): > 100 µM | TGI (HCT-15 colon): > 100 µM | TGI (HL-60(TB) leukemia): > 100 µM | TGI (HOP-62 NSCLC): > 100 µM | TGI (HOP-92 NSCLC): 79.5 µM | TGI (HS 578T breast): 51.4 µM | TGI (HT29 colon): > 100 µM | TGI (IGROV1 ovarian): > 100 µM | TGI (K-562 leukemia): > 100 µM | TGI (KM12 colon): > 100 µM | TGI (LOX IMVI melanoma): > 100 µM | TGI (M14 melanoma): 54.7 µM | TGI (MALME-3M melanoma): 97.6 µM | TGI (MCF7 breast): > 100 µM | TGI (MDA-MB-231 breast): > 100 µM | TGI (MDA-MB-435): > 100 µM | TGI (MDA-N): > 100 µM | TGI (MOLT-4 leukemia): 77 µM | TGI (NCI-H226 lung): 63.8 µM | TGI (NCI-H23 lung): > 100 µM | TGI (NCI-H460 lung): > 100 µM | TGI (NCI-H522 lung): > 100 µM | TGI (NCI/ADR-RES ovarian): > 100 µM | TGI (OVCAR-3 ovarian): > 100 µM | TGI (OVCAR-4 ovarian): > 100 µM | TGI (OVCAR-5 ovarian): > 100 µM | TGI (OVCAR-8 ovarian): > 100 µM | TGI (PC-3 prostate): > 100 µM | TGI (RPMI-8226 leukemia): 32.4 µM | TGI (RXF 393 renal): 60.3 µM | TGI (SF-268 CNS): > 100 µM | TGI (SF-295 CNS): 76.5 µM | TGI (SF-539 CNS): 66.3 µM | TGI (SK-MEL-2 melanoma): 62.7 µM | TGI (SK-MEL-28 melanoma): > 100 µM | TGI (SK-MEL-5 melanoma): > 100 µM | TGI (SK-OV-3 ovarian): 90.9 µM | TGI (SN12C renal): > 100 µM | TGI (SNB-19 CNS): > 100 µM | TGI (SNB-75 CNS): > 100 µM | TGI (SR leukemia): 90.2 µM | TGI (SW-620 colon): > 100 µM | TGI (T-47D breast): > 100 µM | TGI (TK-10 renal): > 100 µM | TGI (U251 CNS): > 100 µM | TGI (UACC-257 melanoma): > 100 µM | TGI (UACC-62 melanoma): > 100 µM | TGI (UO-31 renal): > 100 µM
